# In PubChem BioAssay AID977605 (Broad Institute, 2014):
# Activity calls are given as the source filed them.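 The calls were made as follows: active = fitted curve reaches 40% activation below the top valid tested dose, in every test run; inconclusive = test runs disagree on the call; inactive = the rest, including effects opposite to the expected direction.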
# Experiment: E-selectin inducers in HUVECs, dose response, imaging, HUVEC, cherry-picked samples (AID 977605);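 also: signal is the share of imaged cells scored positive for E-selectin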
# Settings: HUVEC E-selectin immunostaining, at 16 µM (top of the series), percent of TNF-alpha response over vehicle
row,SMILES,activation
1,C[C@@H]1CN([C@H](C)CO)C(=O)c2cccc(NC(=O)c3ccncc3)c2O[C@@H]1CN(C)Cc1ccc(C(=O)Nc2ccccc2N)cc1,4.83% (inactive)

# Same assay, conditions: HUVEC E-selectin immunostaining, at 19.5 µM (top of the series), percent of TNF-alpha response over vehicle
row,SMILES,activation
1,C[C@H](CO)N1C[C@H](C)[C@@H](CN(C)S(C)(=O)=O)Oc2ccc(NS(=O)(=O)c3cccs3)cc2C1=O,-0.072% (inactive)
2,CC(Sc1ncnc2sc(-c3ccccc3)cc12)C(=O)N1CCNC1=O (stereo unspecified),0.007% (inactive)
3,C[C@@H]1CN([C@@H](C)CO)C(=O)c2cccc(NS(=O)(=O)c3ccc(F)cc3)c2O[C@H]1CN(C)Cc1ccc(C(=O)O)cc1,-0.15% (inactive)
4,CNC[C@H]1Oc2ccc(NS(=O)(=O)c3ccc(OC)cc3)cc2CC(=O)N([C@@H](C)CO)C[C@@H]1C,-0.213% (inactive)
5,C[C@@H]1CN([C@@H](C)CO)C(=O)c2cc(N(C)C)ccc2O[C@@H]1CN(C)C(=O)Nc1cccc2ccccc12,-0.224% (inactive)
6,Cc1noc(C)c1NC(=O)N(C)C[C@@H]1Oc2ccc(NC(=O)c3ccncc3)cc2C(=O)N([C@H](C)CO)C[C@H]1C,-0.047% (inactive)
7,COc1ccc(S(=O)(=O)NCC(=O)NCc2cc(=O)n(C)c(=O)n2C)cc1F,0.047% (inactive)
8,C[C@@H]1CN([C@@H](C)CO)C(=O)c2cccc(NC(=O)Nc3ccc(F)cc3)c2O[C@@H]1CN(C)Cc1ccncc1,-0.005% (inactive)
9,CCn1c(CCC(=O)O)nc2cc(S(=O)(=O)N3CCOCC3)ccc21,-0.184% (inactive)
10,CN(CC(=O)Nc1cccc(F)c1)CC(=O)N1CCc2ccccc21,0.11% (inactive)
11,Cc1ccc(S(=O)(=O)N(C)C[C@@H]2Oc3c(NS(=O)(=O)c4ccc(Cl)cc4)cccc3C(=O)N([C@@H](C)CO)C[C@H]2C)cc1,-0.172% (inactive)
12,C[C@H]1CN([C@@H](C)CO)C(=O)c2cc(NC(=O)CCC(F)(F)F)ccc2O[C@@H]1CN(C)Cc1ccc(C(F)(F)F)cc1,0.111% (inactive)
13,C[C@@H]1CN([C@H](C)CO)C(=O)c2cccc(NC(=O)C3CC3)c2O[C@@H]1CN(C)CC1CC1,-0.106% (inactive)
14,C[C@H]1CN([C@@H](C)CO)C(=O)c2cccc(NC(=O)Nc3cccc4ccccc34)c2O[C@H]1CN(C)Cc1ccc(-c2ccccc2)cc1,0.067% (inactive)
15,COc1ccc(-c2nnc3n2CCCCC3)cc1OC,0.027% (inactive)
16,CCC(=O)N(C)C[C@H]1Oc2cc(C3=CCCC3)ccc2S(=O)(=O)N([C@@H](C)CO)C[C@@H]1C,-0.074% (inactive)
17,COc1cccc(-c2cccc(-c3nc(C(=O)Nc4ccc(-c5ccccc5)cc4)cc4c3[C@@H](CCO)N(S(=O)C(C)(C)C)C4)c2)c1 (stereo partly specified),1.45% (inactive)
18,OC(COC(c1ccccc1)c1ccccc1)CN1CCOCC1 (stereo unspecified),2% (inactive)
19,COc1ccc(C)cc1NC(=O)C(NCC(O)c1ccccc1)c1ccccc1 (stereo unspecified),-0.094% (inactive)
20,C[C@@H]1CN([C@H](C)CO)C(=O)c2cc(NC(=O)Nc3ccc(F)cc3)ccc2O[C@H]1CN(C)S(=O)(=O)c1cccs1,0.059% (inactive)
21,CCCN1CCN(C(=O)c2ccc(CS(=O)c3ccc(Cl)cc3)o2)CC1 (stereo unspecified),0.214% (inactive)
22,C[C@@H]1CN([C@@H](C)CO)C(=O)c2cc(NC(=O)Cc3cn(C)c4ccccc34)ccc2O[C@H]1CN(C)Cc1ccc2c(c1)OCO2,-0.066% (inactive)

row,SMILES,activation
1,CCCC#Cc1ccc2c(c1)O[C@@H](CN(C)C(=O)c1ccncc1)[C@H](C)CN([C@@H](C)CO)S2(=O)=O,-0.24% (inactive)
2,COc1ccc(CN(C)C[C@H]2Oc3ccc(N(C)C)cc3CC(=O)N([C@H](C)CO)C[C@H]2C)cc1,0.315% (inactive)
3,COc1ccc2sc(-c3ccccc3OC)c(-c3ccc(O)cc3)c2c1,-0.095% (inactive)
4,C[C@@H]1CN([C@@H](C)CO)C(=O)Cc2cc(NC(=O)C3CC3)ccc2O[C@@H]1CN(C)C(=O)Nc1ccccc1,0.276% (inactive)
5,CC(C)NC(=O)N(C)C[C@H]1Oc2c(NC(=O)c3ccc(-c4nccs4)cc3)cccc2C(=O)N([C@@H](C)CO)C[C@H]1C,2.24% (inactive)
6,C[C@@H]1CN([C@H](C)CO)C(=O)c2cc(NC(=O)CCN3CCOCC3)ccc2O[C@H]1CN(C)C(=O)Nc1ccc(C(F)(F)F)cc1,-0.038% (inactive)
7,C[C@H]1CN([C@@H](C)CO)C(=O)c2cc(C#Cc3cccc(F)c3)cnc2O[C@@H]1CN(C)C(=O)C1CC1,-0.134% (inactive)
8,CCCN1[C@H](CO)[C@H](c2ccc(C#Cc3ccccc3)cc2)[C@@H]1CNC1CCCC1,4.52% (inactive)
9,CCC(CC)NC(=O)Nc1ccc(F)c(Cl)c1,0.516% (inactive)
10,CO[C@@H]1CN(C)C(=O)c2cc(NS(C)(=O)=O)ccc2OC[C@@H](C)N(C(=O)c2ccc3c(c2)OCO3)C[C@@H]1C,-0.203% (inactive)
11,COC(=O)C[C@@H]1CC[C@@H]2[C@H](COc3ccc(NC(=O)Nc4cccc(F)c4)cc3C(=O)N2C)O1,-0.161% (inactive)
12,C[C@@H]1CN([C@H](C)CO)C(=O)c2cccc(NC(=O)Nc3ccccc3)c2O[C@@H]1CN(C)S(=O)(=O)c1ccccc1,0.268% (inactive)
13,COc1ccc(CN(C)C[C@@H]2Oc3ccc(NC(=O)Nc4ccc(F)cc4)cc3CC(=O)N([C@H](C)CO)C[C@H]2C)cc1,0.445% (inactive)
14,Cc1cc(C(=O)Nc2cccc3c2O[C@H](CN(C)C(=O)NC2CCCCC2)[C@@H](C)CN([C@@H](C)CO)C3=O)n(C)n1,-0.268% (inactive)
15,CS(=O)(=O)N1CCc2cc(S(=O)(=O)NCCNS(=O)(=O)c3ccc4c(c3)CCN4S(C)(=O)=O)ccc21,0.185% (inactive)
16,Cc1ccc(CNS(=O)(=O)c2ccc(C(F)(F)F)cc2)n1C,-0.139% (inactive)
17,Cc1ccc(C(=O)Nc2cc(C)nn2CCC#N)cc1,0.178% (inactive)
18,Cc1ccc(OCc2nc(-c3cccnc3)no2)cc1C,-0.108% (inactive)
19,COc1ccc(OC)c(NC(=O)c2ccc(CSc3ncccn3)cc2)c1,0.128% (inactive)
20,C[C@@H]1CN([C@H](C)CO)C(=O)Cc2cc(NS(=O)(=O)c3ccc(F)cc3)ccc2O[C@H]1CN(C)S(=O)(=O)c1ccc(Cl)cc1,5.23% (inactive)
21,C[C@@H]1CCCCO[C@@H](CN(C)S(C)(=O)=O)[C@@H](C)CN([C@H](C)CO)C(=O)c2cc(NC(=O)CCCN(C)C)ccc2O1,-0.145% (inactive)
22,C[C@@H]1CN([C@H](C)CO)C(=O)c2cc(NC(=O)NC3CCCCC3)ccc2O[C@H]1CN(C)S(=O)(=O)c1ccc(Cl)cc1,1.03% (inactive)

row,SMILES,activation
1,C[C@@H]1CN([C@H](C)CO)C(=O)Cc2cc(NS(=O)(=O)c3ccc(F)cc3)ccc2O[C@@H]1CN(C)S(=O)(=O)c1ccc(Cl)cc1,1.34% (inactive)
2,CCC(=O)Oc1cccc(C(=O)Nc2cccc(NC(=O)c3ccco3)c2)c1,-0.083% (inactive)
3,COc1ccc(NC(=O)c2cc(-c3cccs3)on2)c(OC)c1,1.59% (inactive)
4,C[C@@H]1CN([C@H](C)CO)C(=O)c2cccc(NC(=O)Nc3ccc4c(c3)OCO4)c2O[C@@H]1CN(C)C(=O)Nc1ccc(C(F)(F)F)cc1,0.256% (inactive)
5,O=C(c1ccco1)N1CCN(C(=O)C2CC2)CC1,-0.098% (inactive)
6,Cc1ccccc1N(CC(=O)NC1CCCCC1)C(=O)CNC(=O)c1cccs1,0.744% (inactive)
7,Cc1noc(C)c1S(=O)(=O)N(C)C[C@H]1Oc2ccc(NC(=O)C3CC3)cc2CC(=O)N([C@@H](C)CO)C[C@@H]1C,32.2% (inactive)
8,Cc1ccc(C(=O)NNC(=O)CSc2nnc(CNc3ccc(F)cc3)n2C)cc1,-0.046% (inactive)
9,C[C@H]1CN([C@@H](C)CO)C(=O)Cc2cc(NC(=O)Nc3ccccc3)ccc2O[C@H]1CN(C)C,0.067% (inactive)
10,COc1ccccc1CN1CC(C(=O)N(C)Cc2[nH]c3ccccc3c2C)CCC1=O (stereo unspecified),0.071% (inactive)
11,C[C@H](CO)N1C[C@H](C)[C@H](CN(C)C(=O)NC2CCCCC2)Oc2ccc(NS(=O)(=O)c3ccccc3)cc2C1=O,-0.156% (inactive)
12,CCc1ccc(N2CC(C(=O)Nc3ccc(F)cc3)CC2=O)cc1 (stereo unspecified),0.132% (inactive)
13,Cc1ccc(O)c([C@H](CCN(C(C)C)C(C)C)c2ccccc2)c1,-0.269% (inactive)
14,CC(C)NC(=O)Nc1cccc2c1O[C@@H](CN(C)Cc1ccc(C(F)(F)F)cc1)[C@@H](C)CN([C@H](C)CO)C2=O,0.009% (inactive)
15,COc1ccc(S(=O)(=O)Nc2ccc3c(c2)CC(=O)N([C@H](C)CO)C[C@H](C)[C@@H](CN(C)C(=O)NC2CCCCC2)O3)cc1,-0.163% (inactive)
16,COCC(=O)N(C)C[C@H]1Oc2cc(-c3ccc(F)cc3)ccc2S(=O)(=O)N([C@@H](C)CO)C[C@H]1C,-0.091% (inactive)
17,COc1ccc(NS(=O)(=O)c2cccc(Cl)c2Cl)cc1S(=O)(=O)N1CCCCC1,-0.061% (inactive)
18,C[C@@H]1CN([C@@H](C)CO)S(=O)(=O)c2ccc(C#Cc3ccccc3)cc2O[C@@H]1CN(C)CC1CC1,0.541% (inactive)
19,C[C@H]1CN([C@@H](C)CO)C(=O)c2cc(N(C)C)ccc2O[C@H]1CN(C)C(=O)Nc1ccc2c(c1)OCO2,2.2% (inactive)
20,COc1ccccc1OCC(=O)Nc1ccc(S(=O)(=O)N2CCN(C)CC2)cc1,-0.127% (inactive)

# Same assay, conditions: HUVEC E-selectin immunostaining, at 21 µM (top of the series), percent of TNF-alpha response over vehicle
row,SMILES,activation
1,C[C@@H]1CN([C@H](C)CO)C(=O)c2cc(NS(C)(=O)=O)ccc2O[C@H]1CN(C)C(=O)Nc1ccc2c(c1)OCO2,0.437% (inactive)
2,C[C@H](CO)N1C[C@H](C)[C@@H](CN(C)S(=O)(=O)c2cccs2)Oc2ccc(NC(=O)CCN3CCOCC3)cc2C1=O,-0.167% (inactive)
3,C[C@H](CO)N1C[C@H](C)[C@H](CN(C)C)Oc2ccc(NC(=O)Nc3ccccc3)cc2CC1=O,-0.138% (inactive)
4,C[C@H]1CN([C@@H](C)CO)C(=O)c2cccc(NS(=O)(=O)c3cccs3)c2O[C@@H]1CN(C)Cc1ccc(C(=O)Nc2ccccc2N)cc1,-0.225% (inactive)
5,C[C@@H]1CN([C@H](C)CO)C(=O)c2cccc(NS(=O)(=O)c3ccc(F)cc3)c2O[C@@H]1CN(C)S(=O)(=O)c1cccs1,-0.042% (inactive)
6,C[C@@H]1CN([C@H](C)CO)C(=O)c2cccc(NC(=O)C3CCOCC3)c2O[C@H]1CN(C)C(=O)Nc1ccccc1,-0.271% (inactive)
